{
  "source": "patent US11666565B2",
  "about": "“Treatment of cancer using a SMAD3 inhibitor” (The Chinese University of Hong Kong, priority 2012, dated 2023)",
  "key": {"lung carcinoma (LLC)": {"test_system": "lung carcinoma (LLC)", "protocol": "(§1) Therapeutic effect of SIS3 was tested in subcutaneously invasive mouse model of lung carcinoma and melanoma. Lucifase-labeled highly invasive mouse lung carcinoma cells (LLC-luc) and melanoma cells (B16F10-luc) were injected subcutaneously into genetically-identical C57/BL6 mice at a dose of 2 million cells in 200 ul PBS per mouse. Cancer growth, invasion, and metastasis were monitored by measuring tumor size, weight, and bioluminescent imaging weekly. After cancer was established at one week after implantation, tumor-bearing mice received intraperitoneally SIS3 at dosages of 2.5, 5, and 10 ug/Kg body weight daily for 2 weeks. Control animals received daily saline, instead of SIS3, and a group of tumor-bearing mice without any treatment (used as untreated controls) were also monitored. Five mice per group were used in this study. Mice were weighed and tumor size or metastasis was examined by live bioluminescent imaging weekly. The survival rate was recorded. All mice were euthanized 2 weeks after treatment for further examination by histology and tumor volume and weight, invasion, and metastasis."}, "melanoma (B16F10)": {"test_system": "melanoma (B16F10)", "details": "syngeneic mouse model, N=5", "protocol": "as §1"}},
  "data": [
    {"smiles": "COc1cc2c(cc1OC)CN(C(=O)/C=C/c1c(-c3ccccc3)n(C)c3ncccc13)CC2", "note": "[SIS3, (6,7-Dimethoxy-2-((2E)-3-(1-methyl-2-phenyl-1H-pyrrolo[2,3-b]pyridin-3-yl-prop-2-enoyl))-1,2,3,4-tetrahydroisoquinoline)]", "values": [
      {"measurement": "detectability of cancers", "setting": "lung carcinoma (LLC); after 10 days treatment with SIS3 at doses of 5-10 μg/g body weight, N=5, FIG. 6", "result": "most of cancers become undetectable"},
      {"measurement": "invasion into the cancer surrounding tissues and metastasis to lymph nodes, lung, liver, gastric and colon tissue", "setting": "lung carcinoma (LLC); lung carcinoma (LLC) mouse model, FIGS. 3-7", "result": "suppressed"},
      {"measurement": "cancer growth as demonstrated by tumor weight", "setting": "lung carcinoma (LLC); subcutaneous LLC, 2 million cells/mouse, syngeneic mouse model, N=5, FIG. 7A", "result": "prevents cancer growth"},
      {"measurement": "cancer weight", "setting": "melanoma (B16F10); subcutaneous melanoma B16F10, 3 million cells/mouse, FIG. 4", "result": "markedly lowering the cancer weight"},
      {"measurement": "melanoma (B16F10) growth by live imaging analysis", "setting": "melanoma (B16F10); SIS3 intraperitoneally daily, 2.5, 5 and 10 ug/Kg body weight, FIG. 3", "result": "inhibits melanoma (B16F10) growth in a dosage-dependent manner"}
    ]}
  ]
}
